Cytotoxicity data for 105 compounds are collected here from ChEMBL document CHEMBL3507680, “University of Dundee, Gates Library screen for HepG2 cell viability”.

Each structure is given as a SMILES string.

The nature of this data set: Human HepG2 cell viability assay in 384 well format. It counts as toxicity, cell-based. Details: dose 125 nL, time 70.5 hour; concentration not given beside the values. The settings on record: HepG2 cells, read-out: Inhibition.
Consider `Cc1ccc(C(=O)Nc2ccc(N3CCC(O)CC3)c(C#N)c2)s1`, for which the cytotoxicity at 70.5 h is 29.7%.

In the case of `N#Cc1cc(NC(=O)c2cscn2)ccc1N1CCC(O)CC1`, the cytotoxicity at 70.5 h was -4.48%.

On to `N#Cc1cc(NC(=O)c2ccccn2)ccc1N1CCC(O)CC1`, for which the cytotoxicity at 70.5 h is -3.91%.

In the case of `COc1ccccc1OCC(=O)NS(=O)(=O)c1ccc(Cl)cc1F`, the cytotoxicity at 70.5 h was 13.3%.

On to `O=C(NCCc1nnc2n1CCC2)N(Cc1ccco1)C1CCCC1`, for which the cytotoxicity at 70.5 h is -6.25%.

With `CC(=O)c1cccc(OCCCC(=O)N(C)Cc2cnn(C)c2)c1`, the cytotoxicity at 70.5 h is 9.09%.

With `CCOCC(=O)NC1(c2cccc(Cl)c2)CC1`, the cytotoxicity at 70.5 h was -8.22%.

As for `COCCCC(=O)NC1(c2cccc(Br)c2)CC1`, the cytotoxicity at 70.5 h was 8.13%.

As to `CCc1nc(CNc2cc(Cl)ccc2OCC2CCCO2)no1` (stereo not given), the cytotoxicity at 70.5 h was -8.62%.

Consider `COc1cccc(OCC(=O)NS(=O)(=O)c2cc(F)ccc2F)c1`, for which the cytotoxicity at 70.5 h was -5.46%.

As to `CC(O)(CNC(=O)NCc1cccc(-n2cncn2)c1)c1ccco1` (stereo not given), the cytotoxicity at 70.5 h was determined as 7.59%.

In the case of `COc1ccc(C(C)NC(=O)Nc2nnc(C)s2)cc1OC` (stereo not given), the cytotoxicity at 70.5 h is 2.44%.

In the case of `CC(NC(=O)CCc1nc(C(C)(C)C)no1)c1nnc2n1CCC2` (stereo not given), the cytotoxicity at 70.5 h was -7.28%.

Take `O=C(NCCNC(=O)C1CC1)c1cnc(-c2ccccc2)nc1`: the cytotoxicity at 70.5 h came out at 16.6%.

Take `CCN(CC)CCNC(=O)c1cnc(-c2ccccc2)nc1`: the cytotoxicity at 70.5 h was -7.78%.

For `OC1CCN(c2cnnc3ccccc23)CC1`, the cytotoxicity at 70.5 h stood at 30.5%.

Consider `COCc1cccc(CNC(=O)CNc2ccccc2C(C)=O)c1`, for which the cytotoxicity at 70.5 h was determined as 1.21%.

With `COCc1ccccc1CNC(=O)CNc1ccccc1C(C)=O`, the cytotoxicity at 70.5 h came out at 2.64%.

For the compound `CN(C(=O)C1(C#N)CCCCC1)c1nccs1`, the cytotoxicity at 70.5 h is -0.486%.

Turning to `CC(C)Oc1cccc(CNC(=O)N2CCC(N3CC=CC3)C2)c1` (stereo not given), the cytotoxicity at 70.5 h stood at 26.6%.

In the case of `c1ccc(N(CCn2cncn2)CC2CC2)cc1`, the cytotoxicity at 70.5 h was -4.37%.

For `NC(=O)C1CCCN1C(=O)c1cccc2c1OCO2` (stereo not given), the cytotoxicity at 70.5 h is -1.57%.

As for `COCc1ccccc1CNC(=O)CNc1cccc(Cl)c1OC`, the cytotoxicity at 70.5 h was -2.8%.

`CC(C)Nc1cccc(CNC(=O)N2CCC(N3CC=CC3)C2)c1` (stereo not given): the cytotoxicity at 70.5 h turned out to be 30.6%.

For `Cc1nc(CCNC(C)c2ccc3c(c2)OCCCO3)cs1` (stereo not given), the cytotoxicity at 70.5 h stood at 0.884%.

Take `Cc1ccccc1CN1CCCN(C(=O)c2ccn(C)c(=O)c2)CC1`: the cytotoxicity at 70.5 h is -1.43%.

Regarding `COC(=O)c1ccc(CNC(C)(C)c2ccccc2OC)o1`, the cytotoxicity at 70.5 h is -6.94%.

For `Cc1nn(CCC#N)c(C)c1CCC(=O)N(C)Cc1ccc(F)cc1F`, the cytotoxicity at 70.5 h is -4.98%.

For `CN(Cc1nc2ccsc2c(=O)[nH]1)CC1CCCCC1`, the cytotoxicity at 70.5 h was -6.1%.

`COCCn1cc(NC(=O)NCC2CCN(c3ccccc3)C2)cn1` (stereo not given): the cytotoxicity at 70.5 h is -3.34%.

For `Cc1nn(CCC#N)c(C)c1CCC(=O)N(C)Cc1ccsc1`, the cytotoxicity at 70.5 h is -8.77%.

For the compound `Cc1n[nH]c(C(=O)N2CCCC(C)CC2)c1Br` (stereo not given), the cytotoxicity at 70.5 h was -5.15%.

Consider `CCC1CN(C(=O)c2[nH]nc(C)c2Br)CCO1` (stereo not given), for which the cytotoxicity at 70.5 h is -6.3%.

`Cc1ccccc1S(=O)(=O)NC(=O)C1(c2cccc(Cl)c2)CC1`: the cytotoxicity at 70.5 h is -5.62%.

Take `CCOc1ncccc1C(=O)N1CC=C(c2ccc(O)cc2)CC1`: the cytotoxicity at 70.5 h is -6.39%.

Take `CN(C)c1ccc(CCCNC(=O)NCC(O)c2ccsc2)cc1` (stereo not given): the cytotoxicity at 70.5 h is -3.63%.

For the compound `CCc1nc(C2CCCN2c2ncc(Br)cn2)no1` (stereo not given), the cytotoxicity at 70.5 h is -6.32%.

`COCCCn1ccc(NC(=O)NCCc2cccnc2)n1`: the cytotoxicity at 70.5 h was -6.28%.

On to `CCn1nc(C)c(S(=O)(=O)Nc2cccc(C(=O)O)c2C)c1C`, for which the cytotoxicity at 70.5 h is -2.69%.

As for `Cc1noc(-c2ccnc(N3CCC(CN4CCOCC4)CC3)c2)n1`, the cytotoxicity at 70.5 h amounted to 11%.

As to `CS(=O)(=O)Cc1ccc(NC(=O)Cc2cccnc2)cc1F`, the cytotoxicity at 70.5 h is -4.71%.

For the compound `CN(C)C(=O)c1ccc(OC2CCCC2)cc1`, the cytotoxicity at 70.5 h is -7%.

In the case of `Cc1cccc(C(C)NCC2CCS(=O)(=O)CC2)c1` (stereo not given), the cytotoxicity at 70.5 h is -3.65%.

Regarding `CC(C)COC(C)C(=O)N1CCCCCC1` (stereo not given), the cytotoxicity at 70.5 h was -8.79%.

Consider `CC(C)COC(C)C(=O)N1CCCCC1` (stereo not given), for which the cytotoxicity at 70.5 h was -3.46%.

Take `c1cnn(CC2CN(CCCOc3ccc4c(c3)OCO4)CCO2)c1` (stereo not given): the cytotoxicity at 70.5 h is -8.43%.

For the compound `COCCCn1ccc(NC(=O)NCCCNc2ccccc2)n1`, the cytotoxicity at 70.5 h is -3.49%.

For `CC(=O)Nc1cccc(C(C)NCC2CCS(=O)(=O)CC2)c1` (stereo not given), the cytotoxicity at 70.5 h was -3.86%.

In the case of `CC(NCC1CCS(=O)(=O)CC1)c1cccc(OC(F)F)c1` (stereo not given), the cytotoxicity at 70.5 h is -6.96%.

For `CCN(CC)CCNC(=O)c1ccc(Cl)c(NS(C)(=O)=O)c1`, the cytotoxicity at 70.5 h was 4.61%.

Consider `CCOc1ncccc1CNS(=O)(=O)N1CCOCC1`, for which the cytotoxicity at 70.5 h amounted to 15.2%.

For the compound `O=S(=O)(NCC1CCOC1)N1CCc2ccccc2C1` (stereo not given), the cytotoxicity at 70.5 h is -0.92%.

In the case of `O=C(NCCNc1cnccn1)c1scnc1Cl`, the cytotoxicity at 70.5 h is -8.29%.

Consider `CS(=O)(=O)c1ccc(NC(=O)CSC(F)(F)F)cn1`, for which the cytotoxicity at 70.5 h turned out to be 20.8%.

`Cc1noc(C)c1CNC(=O)C(C)Oc1ccccc1F` (stereo not given): the cytotoxicity at 70.5 h was -4.89%.

As to `CNC(=O)NC(=O)CN1CCCN(CC(F)(F)F)CC1`, the cytotoxicity at 70.5 h is -7.82%.

On to `Cc1noc(OCc2ccc(C#N)cc2)n1`, for which the cytotoxicity at 70.5 h was -0.0296%.

Regarding `CC1(C)CN(C(=O)Nc2ccc(Cn3cccn3)cc2)CCO1`, the cytotoxicity at 70.5 h is -3.49%.

With `Cc1noc(OCCOc2ccc(C#N)cc2)n1`, the cytotoxicity at 70.5 h amounted to 5.31%.

As to `O=C(C[S+]([O-])Cc1cccc(C(F)(F)F)c1)NC1CCCC1` (stereo not given), the cytotoxicity at 70.5 h was -8.39%.

Consider `O=C(C[S+]([O-])Cc1ccc(F)cc1Cl)NC1CCCC1` (stereo not given), for which the cytotoxicity at 70.5 h was -6.82%.

Turning to `COc1ccc(-c2ccc(C(=O)O)c(F)c2)c(F)c1`, the cytotoxicity at 70.5 h was 27.5%.

Consider `NS(=O)(=O)NCC1(c2ccccc2Br)CC1`, for which the cytotoxicity at 70.5 h is 0.0399%.

Turning to `CCN(C)S(=O)(=O)NCC1(c2ccccc2Br)CC1`, the cytotoxicity at 70.5 h turned out to be 4.86%.

As for `CCc1cc(N2CCC(NC(=O)CCC3CCCO3)CC2)ncn1` (stereo not given), the cytotoxicity at 70.5 h was found to be 25.3%.

For `Cc1cc(N2CCC(NC(=O)CCc3ccco3)CC2)nc(C)n1`, the cytotoxicity at 70.5 h was 11.4%.

In the case of `Cn1c(=O)oc2cc(Nc3nccnc3C#N)ccc21`, the cytotoxicity at 70.5 h was -2.2%.

Turning to `CN(C)CCNC(=O)Nc1cccc(C[S+]([O-])Cc2ccccc2)c1` (stereo not given), the cytotoxicity at 70.5 h is -2.04%.

Consider `CC1(C)CN(CC(F)(F)F)CCN1CC(=O)NC1CC1`, for which the cytotoxicity at 70.5 h is -6.02%.

Regarding `CC(NC(=O)c1cccs1)C(=O)NS(=O)(=O)c1ccc(C#N)cc1` (stereo not given), the cytotoxicity at 70.5 h was -5.58%.

In the case of `COc1c(CNCc2cccnc2OC2CCCC2)c(C)nn1C`, the cytotoxicity at 70.5 h is -1.47%.

In the case of `COc1ccc(Cl)cc1-c1cc(NC(=O)CNC(=O)C2CC2)[nH]n1`, the cytotoxicity at 70.5 h is -7.16%.

As for `CCN(C(=O)CN(Cc1cccc(O)c1)C1CCC(O)CC1)C1CC1` (stereo not given), the cytotoxicity at 70.5 h was -2.83%.

Regarding `N#Cc1ccsc1C(=O)N1CCCCC1Cn1cccn1` (stereo not given), the cytotoxicity at 70.5 h is 9.01%.

Consider `CN1CCN(CCCN(C)S(=O)(=O)C2CCCCC2)CC1`, for which the cytotoxicity at 70.5 h was -1.58%.

As for `CCc1ccc(C(COC)NC(=O)c2ccc(O)nc2)o1` (stereo not given), the cytotoxicity at 70.5 h is -6.34%.

`COC(=O)NCc1ccc(NC(=O)CC2=CCCCC2)cc1`: the cytotoxicity at 70.5 h was 0.0251%.

`COCC(NC(=O)c1ccoc1)c1ccc(C)o1` (stereo not given): the cytotoxicity at 70.5 h was -2.43%.

On to `CCC(C)(NCc1ncc(C(C)C)o1)c1nccs1` (stereo not given), for which the cytotoxicity at 70.5 h is 1.37%.

For the compound `CCC1CN(C(=O)COc2ccc(C)nc2)CCO1` (stereo not given), the cytotoxicity at 70.5 h worked out at 0.326%.

As for `CC(Cn1cccn1)NC(=O)NCCCN1CCc2ccccc21` (stereo not given), the cytotoxicity at 70.5 h is -0.512%.

Take `CC(=O)NCCCNCc1cc(F)ccc1Br`: the cytotoxicity at 70.5 h turned out to be 15%.

Regarding `CCOC(=O)NC1CCCN(Cc2ccc(-n3cncn3)c(C)c2)C1` (stereo not given), the cytotoxicity at 70.5 h is -0.7%.

`CN(C)C(=O)COc1ccccc1CN1CCOC2(CCCC2)C1`: the cytotoxicity at 70.5 h was 0.31%.

Turning to `CN1CCN(c2ccc(NC(=O)c3ccccn3)c(C(F)(F)F)c2)CC1`, the cytotoxicity at 70.5 h was -5.99%.

In the case of `CCN1CCN(CC(O)c2cc(Cl)ccc2Cl)CC1` (stereo not given), the cytotoxicity at 70.5 h is -8.52%.

In the case of `Cc1ccc(-c2nn3c(nc2=O)-c2ccccc2NC3C(=O)O)cc1C` (stereo not given), the cytotoxicity at 70.5 h was 3.4%.

As for `OCCN1CCN(CC(O)c2cc(Cl)ccc2Cl)CC1` (stereo not given), the cytotoxicity at 70.5 h was -3.64%.

In the case of `COc1ccccc1C(C)Nc1ncc(C(N)=O)cc1Cl` (stereo not given), the cytotoxicity at 70.5 h was -9.04%.

Consider `COc1ccc(C(C)Nc2ncc(C(N)=O)cc2Cl)cc1OC` (stereo not given), for which the cytotoxicity at 70.5 h is -10.8%.

With `O=C(CSc1nnc[nH]1)NCc1sccc1Br`, the cytotoxicity at 70.5 h is -5.23%.

For the compound `Cc1ccccc1C(NC(=O)CNC(=O)c1ccoc1C)C(C)C` (stereo not given), the cytotoxicity at 70.5 h worked out at 11.7%.

As for `Cc1cc(N2CCCC(OC(=O)CCc3cnn(C)c3)C2)nc(C)n1` (stereo not given), the cytotoxicity at 70.5 h is -11.2%.

For `Cc1cc(CS(=O)(=O)NC2CCCc3ccccc32)on1` (stereo not given), the cytotoxicity at 70.5 h is -1.17%.

Take `CN(C)CCN(C)C(=O)Nc1cc(F)cc(N2CCCC2)c1`: the cytotoxicity at 70.5 h was -6.32%.

With `CC(C#N)NS(=O)(=O)c1ccc2c(c1)N(C)CCC2` (stereo not given), the cytotoxicity at 70.5 h is -0.913%.

For the compound `CC(=O)NS(=O)(=O)c1ccc2c(c1)N(C)CCC2`, the cytotoxicity at 70.5 h was -5.49%.

`Cc1cccc(NS(=O)(=O)c2ccc(C#N)nc2)c1C#N`: the cytotoxicity at 70.5 h was -4.92%.

For the compound `CCOCC(=O)N(C)c1ccc(F)c(Cl)c1`, the cytotoxicity at 70.5 h is -2.55%.

As for `CN1CCCc2ccc(S(=O)(=O)NC(=O)C3CC=CC3)cc21`, the cytotoxicity at 70.5 h is -3.77%.

Turning to `Cc1noc(C)c1CN(C)C(C)c1cccs1` (stereo not given), the cytotoxicity at 70.5 h was -3.21%.

On to `Cc1ccc(NC(=O)N2CCCC(O)C2)c(Br)c1` (stereo not given), for which the cytotoxicity at 70.5 h amounted to 6.64%.

For `CC(C)(C)NC(=O)C1CSCN1C(=O)CCc1ccco1` (stereo not given), the cytotoxicity at 70.5 h is -0.786%.

Consider `COc1c(CNC2(c3noc(C)n3)CCC2)c(C(C)C)nn1C`, for which the cytotoxicity at 70.5 h is -0.972%.

With `Cc1sc(CN)nc1-c1ccc(Cl)cc1`, the cytotoxicity at 70.5 h amounted to 4.14%.
